Assay [1] concerns HCMV Strain AD169. The assay is described as follows: Viral qPCR assay, HCMV in MRC-5 cells. Conditions: read-out: CMV MRC5 Cell (EC50). It is filed as cell-based, Human cytomegalovirus. In outline:
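Viral genome copies, quantified by TaqMan qPCR with a plasmid standard curve after ~72 h infection of MRC-5 cells with AD169 at 0.05-0.1 pfu/cell, served as readout; PPIA normalisation used in one format. Compounds run as 10-point 3-fold series, in standard or 50% FBS media; EC50 by 4-parameter fit.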
(In qPCR the cycle at which signal appears reflects the starting amount.)

Assay [2] has as its target T1, Human cytomegalovirus DNA polymerase (Human cytomegalovirus, UniProt P08546).
T1 construct: made in house; host or cells: SF21 insect cells (baculovirus vector)
The assay can be described thus: HCMV polymerase assay (AlphaLISA). In kind it is biochemical. The settings on record: HCMV DNA polymerase 0.2 nM, 60 minutes at 37° C.; read-out: CMV (IC50). Put shortly: (§1)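 Baculovirus/SF21-expressed polymerase (HCMV 0.2 nM; VZV 0.4 nM) pre-incubated 30 min at room temperature with compound in HEPES pH 7.5 buffer, then 60 min at 37 °C with 1.6 nM DIG-primer/template, sub-nM to 24 nM dNTPs and 0.8 nM biotin-dUTP. AlphaLISA detection; IC50 from 4-parameter fit.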
(Alpha assays give light when donor and acceptor beads are brought close together.)

In assay [3] the test system is VZV. The assay is described as follows: Viral qPCR assay, VZV in MeWo cells. In kind it is cell-based, varicella zoster virus. The settings on record: read-out: VZV MEWO Cell (IC50). The method, then: (§2) MRCS cells, Vero cells, and MeWo cells were obtained from ATCC and were maintained at 37° C./5% CO2/90% relative humidity in Minimal Essential Medium with 10% fetal bovine serum, […] L-glutamine, 100 units/ml penicillin and 100 ug/ml streptomycin. Assay plates were prepared by dispensing compounds dissolved in DMSO into wells of 384 well collagen-coated plates using an ECHO acoustic dispenser. Each compound was tested in a 10-point, serial 3-fold dilution. Controls included uninfected cells and infected cells treated only with DMSO. Assays were initiated by mixing selected cells, in suspension, with virus, and dispensing 50 μl/well infected cells to pre-plated compounds. Plates were incubated at 37° C./5% CO2/90% relative humidity for ˜72 hrs to permit genomic replication, and infected cells were lysed by the addition of an equal volume of lysis buffer (10 mM Tris-HCl, pH8, 50 mM KCl, 2 mM MgCl2, 0.45% NP-40, 0.45% Tween-20, and 100 μg/ml proteinase K). An aliquot of the lysate was transferred to a 384-well PCR plate and incubated at 56° C. for 1 hour and then at 95° C. for 10 min. Levels of a viral gene and of the cellular control, PPIA (Thermo Fisher Assay ID=Hs04194521_s1), were measured in separate 10 μL qPCR assays using TaqMan® Gene Expression Master Mix (Applied Biosystems), and an 7900HT Fast Real-Time PCR System with 384-Well Block Module. 7-point, serial 10-fold dilutions of a plasmid standard were run on each plate to generate a standard curve, and genome copies numbers were calculated by plotting experimental Ct onto linear regression of the standard curve. Viral genome copy numbers were normalized by cellular control copy number, and compound effects were normalized to the window defined by the controls. Calculated % effects were fit using a 4-parameter algorithm, and EC50 was reported.
as §2, with “gene” for “gene and of the cellular control, PPIA (Thermo Fisher Assay ID=Hs04194521_s1),”, “in” for “in separate”, “Compound effects on viral” for “Viral”, “number” for “numbers were normalized by cellular control copy number, and compound effects”
(§3) VZV: Strain Street was maintained as an infected cell stock in MRC-5 cells. It was assayed in MeWo or MRCS cells and was used at 0.04-0.1 pfu/cell. The assays were performed in growth medium. Primer-probe set was Thermo Fisher Assay ID=AIPAEXQ. HSV-1: Strain F Street was assayed in Vero or MRCS cells and was used at 0.0005-0.004 pfu/cell in growth medium. Primer-probe set was Thermo Fisher Assay ID=AIBJZIB

Assay [4] has as its system HSV2. The assay can be described thus: Viral qPCR assay, HSV2 in Vero cells. It is filed as cell-based, Herpes Simplex Virus type 2. Conditions: read-out: HSV2 VERO Cell (EC50). The method, then: as §2
as §2, with “gene” for “gene and of the cellular control, PPIA (Thermo Fisher Assay ID=Hs04194521_s1),”, “in” for “in separate”, “Compound effects on viral” for “Viral”, “number” for “numbers were normalized by cellular control copy number, and compound effects”

The test system of assay [5] is HSV-1 Strain F. The assay can be described thus: Viral qPCR assay, HSV-1 in Vero cells. Conditions: read-out: HSV1 VERO Cell (EC50). In kind it is cell-based, Herpes Simplex Virus type 1. The method, then:
as §2
as §2, with “gene” for “gene and of the cellular control, PPIA (Thermo Fisher Assay ID=Hs04194521_s1),”, “in” for “in separate”, “Compound effects on viral” for “Viral”, “number” for “numbers were normalized by cellular control copy number, and compound effects”
as §3

The target in assay [6] is T2, varicella zoster virus DNA polymerase (Varicella-zoster virus, UniProt P09252).
T2 construct: made in house; host or cells: SF21 insect cells (baculovirus vector)
T2 sequence (P09252 whole entry): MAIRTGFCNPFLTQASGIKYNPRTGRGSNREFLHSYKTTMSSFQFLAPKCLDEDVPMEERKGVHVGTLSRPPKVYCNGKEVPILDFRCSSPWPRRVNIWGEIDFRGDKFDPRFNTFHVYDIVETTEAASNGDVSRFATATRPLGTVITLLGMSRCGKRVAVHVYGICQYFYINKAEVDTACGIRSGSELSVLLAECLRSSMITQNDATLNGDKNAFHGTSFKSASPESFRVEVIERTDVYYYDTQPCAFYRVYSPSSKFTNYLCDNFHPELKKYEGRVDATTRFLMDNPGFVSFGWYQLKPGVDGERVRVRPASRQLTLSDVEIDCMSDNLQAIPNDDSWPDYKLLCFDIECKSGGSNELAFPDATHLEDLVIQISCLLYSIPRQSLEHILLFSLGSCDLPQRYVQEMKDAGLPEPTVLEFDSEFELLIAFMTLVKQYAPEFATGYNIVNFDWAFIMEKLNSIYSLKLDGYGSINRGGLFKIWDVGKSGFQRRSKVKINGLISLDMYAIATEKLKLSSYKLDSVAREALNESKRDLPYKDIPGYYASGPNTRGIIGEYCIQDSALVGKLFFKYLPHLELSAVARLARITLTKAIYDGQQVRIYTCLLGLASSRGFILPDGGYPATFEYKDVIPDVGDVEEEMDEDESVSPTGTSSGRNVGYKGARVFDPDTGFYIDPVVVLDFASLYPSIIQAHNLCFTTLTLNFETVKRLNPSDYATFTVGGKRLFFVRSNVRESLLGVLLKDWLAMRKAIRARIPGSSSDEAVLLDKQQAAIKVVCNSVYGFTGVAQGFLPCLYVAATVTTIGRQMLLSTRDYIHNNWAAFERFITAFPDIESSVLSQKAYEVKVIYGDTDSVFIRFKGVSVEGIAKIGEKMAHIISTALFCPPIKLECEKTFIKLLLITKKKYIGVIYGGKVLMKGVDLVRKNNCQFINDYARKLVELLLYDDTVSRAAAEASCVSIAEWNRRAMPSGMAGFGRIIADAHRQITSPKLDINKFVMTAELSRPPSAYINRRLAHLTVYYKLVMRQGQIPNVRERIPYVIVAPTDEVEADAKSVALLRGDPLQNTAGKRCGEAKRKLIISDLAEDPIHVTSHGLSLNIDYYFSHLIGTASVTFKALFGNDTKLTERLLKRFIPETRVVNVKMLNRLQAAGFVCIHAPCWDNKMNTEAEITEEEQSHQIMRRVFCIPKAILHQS
The assay can be described thus: VZV polymerase assay (AlphaLISA). In kind it is biochemical. Conditions: VZV DNA polymerase 0.4 nM, 60 minutes at 37° C. Put shortly:
as §1

Assay [7] has as its system VZV. The assay is described as follows: Viral qPCR assay, VZV in MRC5 cells. It is filed as cell-based, varicella zoster virus. Conditions: read-out: VZV MRC5 Cell (IC50). Put shortly:
(§4)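 EC50 from a 4-parameter fit of viral genome copies, quantified by TaqMan qPCR on proteinase K lysates against a plasmid standard, with or without PPIA normalization. Infected cells (VZV 0.04-0.1 pfu/cell in MeWo/MRC5; HSV-1 0.0005-0.004 pfu/cell in Vero/MRC5) were exposed to 10-point 3-fold dilutions for ~72 h at 37 °C.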

The subject of assay [8] is HSV2. The assay can be described thus: Viral qPCR assay, HSV2 in MRC5 cells. In kind it is cell-based, Herpes Simplex Virus type 2. Conditions: read-out: HSV2 MRC5 Cell (EC50). In outline:
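EC50 from a 4-parameter fit of % effect on HSV2 genome copies, quantified by qPCR from a plasmid standard curve and normalized to infected DMSO and uninfected controls, with PPIA correction in one version. Virus-mixed Vero or MRC5 cells met 10-point 3-fold serial compound dilutions for ~72 h at 37 °C.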

The subject of assay [9] is HSV-1 Strain F. The assay is described as follows: Viral qPCR assay, HSV-1 in MRC5 cells. In kind it is cell-based, Herpes Simplex Virus type 1. Conditions: read-out: HSV1 MRC5 Cell (EC50). In outline: as §4
Where [10] appears, read: Human betaherpesvirus 5, AD169, MRC5, 72 h.
Setting [11] is: Human alphaherpesvirus 3, ~72 hrs.
Setting [12] is: Human alphaherpesvirus 2, Vero, 72 h.
The mark [13] stands for this setting: Human alphaherpesvirus 1, Vero, 72 h.
Setting [14] is: Human alphaherpesvirus 3, MRC5, 72 h.
The mark [15] stands for this setting: Human alphaherpesvirus 2, MRC5, 72 h.
Where [16] appears, read: Human alphaherpesvirus 1, MRC5, 72 h.

Our source for the EC50 and IC50 values is patent US20240059693A1, “FUSED BICYCLIC PYRAZOLE DERIVATIVES AND METHODS OF USE THEREOF FOR THE TREATMENT OF HERPESVIRUSES” (Merck Sharp & Dohme LLC, priority 2020, published 2024).

Where two headings read alike, the source gives them in different places.

T1 sequence (P08546 whole entry): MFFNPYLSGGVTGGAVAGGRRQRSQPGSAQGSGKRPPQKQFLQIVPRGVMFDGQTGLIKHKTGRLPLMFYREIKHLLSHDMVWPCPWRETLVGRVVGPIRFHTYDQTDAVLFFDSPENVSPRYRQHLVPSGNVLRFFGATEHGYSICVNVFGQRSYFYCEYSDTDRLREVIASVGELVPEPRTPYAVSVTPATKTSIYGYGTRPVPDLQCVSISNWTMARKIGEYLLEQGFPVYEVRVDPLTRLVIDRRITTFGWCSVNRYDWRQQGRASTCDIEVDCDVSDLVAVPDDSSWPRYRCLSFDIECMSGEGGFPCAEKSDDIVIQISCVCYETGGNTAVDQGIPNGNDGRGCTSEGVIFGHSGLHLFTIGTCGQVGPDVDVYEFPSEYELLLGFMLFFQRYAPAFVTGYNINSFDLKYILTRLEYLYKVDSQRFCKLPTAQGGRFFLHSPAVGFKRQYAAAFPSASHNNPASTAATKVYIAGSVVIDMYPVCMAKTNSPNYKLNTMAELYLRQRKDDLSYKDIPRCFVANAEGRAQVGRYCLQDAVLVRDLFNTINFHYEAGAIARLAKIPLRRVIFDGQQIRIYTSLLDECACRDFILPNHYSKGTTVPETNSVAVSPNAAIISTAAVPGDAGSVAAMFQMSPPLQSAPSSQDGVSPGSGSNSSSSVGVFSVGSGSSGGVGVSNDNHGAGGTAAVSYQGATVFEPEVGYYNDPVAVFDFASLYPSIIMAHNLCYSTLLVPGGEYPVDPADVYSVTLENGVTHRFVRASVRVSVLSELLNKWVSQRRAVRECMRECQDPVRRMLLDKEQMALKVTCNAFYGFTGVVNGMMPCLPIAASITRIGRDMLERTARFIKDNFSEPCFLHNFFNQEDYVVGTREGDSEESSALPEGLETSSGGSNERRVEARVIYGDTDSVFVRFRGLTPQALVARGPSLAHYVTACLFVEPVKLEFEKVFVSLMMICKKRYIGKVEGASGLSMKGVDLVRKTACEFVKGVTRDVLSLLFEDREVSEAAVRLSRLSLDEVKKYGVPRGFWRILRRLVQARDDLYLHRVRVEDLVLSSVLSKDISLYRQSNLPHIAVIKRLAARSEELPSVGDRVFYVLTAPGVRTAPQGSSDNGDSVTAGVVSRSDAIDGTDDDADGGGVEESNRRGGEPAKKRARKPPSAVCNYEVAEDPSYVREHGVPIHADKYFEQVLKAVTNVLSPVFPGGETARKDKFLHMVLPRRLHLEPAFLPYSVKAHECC

Consider `O=C1CC[C@@H](CN2Cc3c(C(=O)NCc4ccc(Cl)cc4)nn(C4CCC(F)(F)C4)c3C2)N1` (single isomer, unassigned) [Compound 55], for which the EC50 (usually the concentration needed to bring the measured effect to its halfway point) worked out at 2710 nM in assay [1] (MRC5 cells, ~72 hrs); 13100 nM in assay [4] (~72 hrs); 5600 nM in assay [5] (~72 hrs). Also, the values for the IC50 in assay [2], in assay [3] (~72 hrs) and in assay [6] were 94.1 nM, 478 nM and 26.9 nM, respectively.
`Cn1nc(C(=O)NCc2ccc(Cl)cc2)c2c1CC(C[C@@H]1CCC(=O)N1)C2` (single isomer, unassigned) [Compound 127]: the IC50 (usually the concentration needed to halve the response being measured) in [7] (~72 hrs) worked out at 407 nM; in assay [2] it was 48.9 nM; in assay [3] (~72 hrs), 130 nM; in assay [6], 9.72 nM. The concentration for a half-maximal effect (EC50) in assay [1] (MRC5 cells, ~72 hrs) came out at 599 nM; in assay [8] (~72 hrs), 278 nM; in assay [4] (~72 hrs), 364 nM; in assay [9] (~72 hrs), 694 nM; in [5] (~72 hrs), 240 nM.
Consider `Cn1nc(C(=O)NCc2ccc(Cl)cc2)c2c1CC(C[C@H]1CCC(=O)N1)C2` (single isomer, unassigned) [Compound 129], for which the IC50 worked out at 371 nM in assay [7] (~72 hrs), 74.2 nM in assay [2], 154 nM in assay [3] (~72 hrs) and 9.1 nM in [6]. For the same compound, the EC50 in assay [1] (MRC5 cells, ~72 hrs) was found to be 1570 nM; in [8] (~72 hrs), 384 nM; in [4] (~72 hrs), 422 nM; in assay [9] (~72 hrs), 1020 nM; in [5] (~72 hrs) it was 264 nM.
Consider `CN(CCn1nc(C(=O)NCc2ccc(Cl)cc2)c2c1CN(C[C@H]1CCC(=O)N1)C2)C(=O)C1CCC1` [Compound 3], for which the EC50 in [1] (setting [10]) is 1260 nM; in assay [4] (setting [12]), 56900 nM; in assay [5] (setting [13]) it was 33300 nM. Also, the 50% inhibitory concentration (IC50) was 8.75 nM in assay [2], 342 nM in [3] (setting [11]) and 3.45 nM in assay [6].
In the case of `O=C1CC[C@H](CN2Cc3c(C(=O)NCc4ccc(Cl)cc4)nn(CC4CCCO4)c3C2)N1` (some centres unmarked) [Compound 29], the EC50 in assay [1] (setting [10]) is 3680 nM; in [4] (setting [12]), 8930 nM; in [5] (setting [13]), 5320 nM. The IC50 in [2] is 186 nM; in assay [3] (setting [11]), 258 nM; in [6], 57.8 nM.
Regarding `CC1(Cn2nc(C(=O)NCc3ccc(Cl)cc3)c3c2CN(C[C@H]2CCC(=O)N2)C3)COC1` [Compound 30], the EC50 is 5750 nM in assay [1] (setting [10]), 16400 nM in assay [4] (setting [12]) and 12000 nM in [5] (setting [13]). Further, the IC50 in [2] amounted to 245 nM; in assay [3] (setting [11]), 2350 nM; in assay [6], 65.9 nM.
As to `O=C1CC[C@H](CN2Cc3c(C(=O)NCc4ccc(Cl)cc4)nn(CCC4CCOC4)c3C2)N1` (some centres unmarked) [Compound 38], the figures for the EC50 in [1] (setting [10]), in assay [4] (setting [12]) and in [5] (setting [13]) were 1240 nM, 5830 nM and 2580 nM, respectively. Besides, the results for the half-maximal inhibitory concentration (IC50) in assay [2], in [3] (setting [11]) and in [6] were 34.6 nM, 500 nM and 15.6 nM, respectively.
Take `CC(C)(O)Cn1nc(C(=O)NCc2ccc(Cl)cc2)c2c1CN(C[C@H]1CCC(=O)N1)C2` [Compound 58]: the concentration for a half-maximal effect (EC50) is 1230 nM in assay [1] (setting [10]), 712 nM in assay [4] (setting [12]) and 536 nM in assay [5] (setting [13]). The IC50 is 120 nM in [2], 602 nM in [3] (setting [11]) and 18.9 nM in assay [6].
`Cn1nc(C(=O)NCc2ccc(Cl)cc2)c2c1CN(C[C@@H]1CC(F)C(=O)N1)C2` (some centres unmarked) [Compound 80]: the IC50 in assay [7] (~72 hrs) was 3890 nM; in [2], 168 nM; in assay [6], 102 nM. Moreover, the EC50 in assay [1] (MRC5 cells, ~72 hrs) was 2780 nM; in assay [8] (~72 hrs), 2830 nM; in [4] (~72 hrs), 2310 nM; in assay [9] (~72 hrs) it was 4000 nM; in [5] (~72 hrs) it was 1930 nM.
Regarding `O=C1CC[C@H](CC2Cc3c(C(=O)NCc4ccc(Cl)cc4)nn(CCN4CCOCC4)c3C2)N1` (some centres unmarked) [Compound 133], the figures for the IC50 in [7] (setting [14]), in assay [2] and in assay [6] were 1210 nM, 85.8 nM and 19.7 nM, respectively. Moreover, the EC50 is 805 nM in assay [1] (setting [10]); 557 nM in assay [8] (setting [15]); 1060 nM in assay [4] (setting [12]); 1190 nM in assay [9] (setting [16]); 1620 nM in assay [5] (setting [13]).
Consider `CC(C)N1CC(n2nc(C(=O)NCc3ccc(Cl)cc3)c3c2CC(C[C@H]2CCC(=O)N2)C3)C1` (some centres unmarked) [Compound 134], for which the figures for the IC50 in assay [7] (~72 hrs), in assay [2] and in assay [6] were 832 nM, 87.4 nM and 14.9 nM, respectively. The EC50 amounted to 970 nM in assay [1] (MRC5 cells, ~72 hrs); 545 nM in assay [8] (~72 hrs); 584 nM in assay [4] (~72 hrs); 1170 nM in assay [9] (~72 hrs); 991 nM in [5] (~72 hrs).
`CC(C)CN1CC(n2nc(C(=O)NCc3ccc(Cl)cc3)c3c2CC(C[C@H]2CCC(=O)N2)C3)C1` (some centres unmarked) [Compound 135]: the IC50 in assay [7] (setting [14]) is 633 nM; in assay [2] it was 89.3 nM; in [6], 26.1 nM. In addition, the EC50 in [1] (setting [10]) came to 769 nM; in assay [8] (setting [15]) it was 589 nM; in assay [4] (setting [12]), 1970 nM; in [9] (setting [16]) it was 749 nM; in assay [5] (setting [13]) it was 1520 nM.
